IC50 data for 83 compounds are collected here from PubChem BioAssay AID489033 (Sanford-Burnham Center for Chemical Genomics, 2010).

Molecules are shown by their SMILES. Active and inactive are the calls of the source. No rule for the calls is given here.

In the assay the test system is 697B B-cell line, NF-kB luciferase reporter luminescence. The assay can be described thus: NF-kB reporter inhibition in B cells, dose response, selectivity assay for T-cell antigen receptor NF-kB inhibitors, 697B cells, luminescence (AID 489033).
Broadly, the IC50 is the point on the concentration scale where inhibition reaches its midpoint. As to `O=C(/C=C/c1cccc([N+](=O)[O-])c1)n1cnc2ccccc21`, the IC50 was 3.2 µM. The result for `O=C(N/N=C(\c1ccccc1)c1cccnc1)c1cccc(F)c1` reads 3.1 µM. The same measure for `Cc1ccc2c(c1)C=CC(C#N)N2C(=O)c1ccccc1` (stereo not drawn): > 80 µM (inactive); for `Cc1oc2c(c1C(=O)NCc1cccnc1)C(=O)c1ccccc1C2=O`: 4.69 µM. The result for `COc1cccc(/C=N/Nc2ncnc3scc(-c4ccccc4)c23)c1O` reads 39.8 µM (inactive); that for `COc1ccccc1NC(=O)c1cnc(Nc2ccccc2OC)c2ccccc12`, > 80 µM (inactive). `Cc1cc(/C=C2\Sc3ccccc3N2C)cc(C)[n+]1CC1CCCO1` (stereo not drawn): the IC50 was > 80 µM (inactive). The result for `O=C(Nc1ccc(CSc2ccccc2)cc1)c1ccc(CN2CCOCC2)cc1` reads > 80 µM (inactive).

For `COc1cc2nc(CN3CC=C(c4ccccc4)CC3)[nH]c(=O)c2cc1OC`, the IC50 was 13.8 µM.

For the compound `Cc1ccc(-c2nc(-c3ccccn3)no2)cc1`, the IC50 is 3.78 µM. Consider `CCn1nc(C)c(CNC(=O)c2ccc(OC3CCN(Cc4ccccn4)CC3)cc2)c1C`, for which the IC50 is > 80 µM (inactive). The same measure for `COc1ccc(NS(=O)(=O)c2ccc(-c3cnc(C4CC4)o3)cc2)cc1OC`: > 80 µM (inactive); for `CCOc1ccccc1C1CC(=O)Nc2cc(C)c(C)cc21` (stereo not drawn): > 80 µM (inactive). The same measure for `Cc1oc(-c2ccc(Cl)cc2)nc1CS(=O)CC(=O)NCCCN1CCN(Cc2ccccc2)CC1` (stereo not drawn): 60.8 µM (inactive); for `Cc1ccc(S(=O)(=O)NCc2ccncc2)c(C)c1C`: > 80 µM (inactive); for `O=S(=O)(C/C(=C/CO)S(=O)(=O)c1ccccc1)c1ccccc1`: 0.28 µM. The same measure for `COc1ccccc1NC(=O)Cn1nnc(C(=O)NCc2cccs2)c1N`: > 80 µM (inactive). In the case of `Oc1ccc2ccccc2c1N=Nc1ccccn1`, the IC50 is 3.22 µM. The result for `C=CCSc1nc2ccccc2n1C(=O)/C=C/c1cc(OC)c(OC)c(OC)c1` reads > 80 µM (inactive).

Turning to `CCC(=O)NC(c1ccc(C)cc1)c1ccc2cccnc2c1O` (stereo not drawn), the IC50 is > 80 µM (inactive). The result for `CC(=O)O[C@H]1C(=O)[C@]2(C)[C@H]([C@H](OC(=O)c3ccccc3)[C@]3(O)C[C@H](OC(=O)[C@H](O)[C@@H](NC(=O)c4ccccc4)c4ccccc4)C(C)=C1C3(C)C)[C@]1(OC(C)=O)CO[C@@H]1C[C@@H]2O` reads > 80 µM (inactive); that for `COc1ccc(S(=O)(=O)N2N=C(C)Oc3ccccc3C2=O)cc1`, > 80 µM (inactive). The same measure for `C=CCOC(=O)c1[nH]c2c(c1C)C(=O)CC(c1ccco1)C2` (stereo not drawn): > 80 µM (inactive); for `Cc1ccc(C(=O)c2cc([N+](=O)[O-])ccc2N2CCOCC2)c(C)c1`: > 80 µM (inactive). The result for `COc1cc(C2c3cc4c(cc3C(OC3OC5COC(c6cccs6)OC5C(O)C3O)C3COC(=O)C23)OCO4)cc(OC)c1O` (stereo not drawn) reads 3.94 µM; that for `COc1ccccc1C1=NOC(COc2ccc3c(C)cc(=O)oc3c2)C1` (stereo not drawn), > 80 µM (inactive). On to `Cn1nc(CC(=O)Nc2ccc(N3CCN(C(=O)OC(C)(C)C)CC3)cc2)c2ccccc2c1=O`, for which the IC50 was > 80 µM (inactive). In the case of `Cc1ccc(C(=O)Nc2cnc3ccccc3c2)cc1`, the IC50 is 7.31 µM.

`C[C@]12CC[C@H](O)C[C@H]1CC[C@@H]1[C@@H]2C[C@@H](O)[C@]2(C)[C@@H](C3=CC(=O)OC3)CC[C@]12O`: the IC50 was 1.6 µM. The result for `CC/C=C/CC(=O)N[C@@H](c1ccccc1)[C@@H](O)C(=O)O[C@H]1C[C@@]2(O)[C@@H](OC(=O)c3ccccc3)C3[C@](C)(C(=O)[C@H](OC(C)=O)C(=C1C)C2(C)C)[C@@H](O)C[C@H]1OC[C@@]31OC(C)=O` (stereo partly drawn) reads > 80 µM (inactive); that for `O=C(Nc1ccc(S(=O)(=O)Nc2ccc(F)cc2)cc1)c1ccc(CN2CCOCC2)cc1`, > 80 µM (inactive); that for `Cc1ncoc1C(=O)NC1CCCc2c1cnn2-c1ccc(C(C)(C)C)cc1` (stereo not drawn), 69.7 µM (inactive).

Take `CCOC(=O)c1ccccc1NC(=O)Cn1c(-c2nonc2N)nc2ccccc21`: the IC50 is > 80 µM (inactive).

For the compound `Cc1ccc(/C=C/c2ccc(N(C)C)cc2)[n+](C)c1`, the IC50 is > 80 µM (inactive). The result for `COc1ccc(C2=Nn3c(nnc3-c3ccccc3OC)SC2)cc1OC1CCCC1` reads 3.54 µM; that for `O=C(Nc1ccc([N+](=O)[O-])cc1)Nc1ccon1`, > 80 µM (inactive). Regarding `COC(=O)CCC(=O)NC(=S)Nc1sc(C)c(C)c1C(N)=O`, the IC50 was > 80 µM (inactive).

Turning to `COc1ccc(NS(=O)(=O)c2cc(-c3cnc(C4CC4)o3)ccc2C)cc1`, the IC50 was > 80 µM (inactive). Regarding `Cn1c(SC2=CS(=O)(=O)c3ccccc32)nc2ccccc21`, the IC50 was 3.54 µM. The same measure for `Cc1cc(C)cc(NC(=O)c2ccc([N+](=O)[O-])o2)c1`: 21.3 µM (inactive). On to `CN(C)c1ccc2c(c1)OC(N)=C(C#N)C2c1cccc(F)c1` (stereo not drawn), for which the IC50 is > 80 µM (inactive). With `COc1ccc(/C=C/C(=O)c2cc(F)ccc2OC(=O)c2ccccc2)cc1OC`, the IC50 is > 80 µM (inactive). With `CCCCCCCOc1ccc(OC(=O)c2ccncc2)cc1`, the IC50 is > 80 µM (inactive). As for `COc1ccc(-[n+]2c(-c3ccccc3)cc(-c3ccc(C)cc3)cc2-c2ccccc2)cc1`, the IC50 is 8.23 µM.

Turning to `O=C(Nc1ccncc1)C1CCCN(S(=O)(=O)c2cccc3cccnc23)C1` (stereo not drawn), the IC50 is > 80 µM (inactive). On to `N/C(=N\OCc1ccc([N+](=O)[O-])cc1)c1ccccn1`, for which the IC50 is 2.43 µM. The same measure for `Cc1[nH]n(-c2ccccc2)c(=O)c1/C=N/Nc1nncc(-c2ccccc2)n1`: > 80 µM (inactive).

On to `COc1cc(C(=O)N2CCN(c3cccc(C)c3C)CC2)cc(OC)c1OC`, for which the IC50 was > 80 µM (inactive).

Regarding `CCc1ccc(/C=N/NC(=O)c2cc(C3CC3)nc3ccccc23)s1`, the IC50 is 23.3 µM (inactive). The result for `CCOC(=O)c1[nH]c(C=O)c(C(=O)OCC)c1C` reads 59.5 µM (inactive); that for `COc1cc(OC)c(/C=C2\C(=O)Nc3ccccc32)c(OC)c1`, 62.6 µM (inactive). Regarding `O=C(OCCN1C(=O)c2cccc3c(N4CCOCC4)ccc(c23)C1=O)c1ccc(Cl)cc1`, the IC50 was > 80 µM (inactive). The same measure for `O=C(NCc1cccs1)C1CCN(c2ccc(S(=O)(=O)N3CCOCC3)cc2Cl)CC1`: > 80 µM (inactive). The same measure for `COc1cccc(CN(C)C(=O)c2cc(COc3ccc4ncccc4c3)on2)c1`: > 80 µM (inactive).

As to `COc1ccc(-c2c(C#N)c(N)nc3c2CCc2ccccc2-3)cc1OC`, the IC50 was 54.4 µM (inactive).

For `Cc1nc(NCc2ccco2)c2c(C)c(C)sc2n1`, the IC50 is 5.3 µM. For `CC(=O)Nc1ccc(S(=O)(=O)N2CCCc3ccccc32)cc1`, the IC50 was > 80 µM (inactive). The result for `COc1ccc(C(=O)Nc2ccc3[nH]c(-c4cccc(OC)c4)cc(=O)c3c2)cc1` reads > 80 µM (inactive); that for `Cc1cc(O)c2c(c1O)C(=O)[C@]13C(=C2O)C(=O)[C@@H]2[C@@H](O)[C@H]1[C@@H]1[C@H](O)[C@H]3C(=O)C3=C(O)c4c(O)cc(C)c(O)c4C(=O)[C@]312`, > 80 µM (inactive). The result for `O=C(Nc1ccc(S(=O)(=O)N2CCCC2)cc1)c1ccc(CN2CCc3ccccc3C2)cc1` reads > 80 µM (inactive); that for `Cc1ccsc1/C=N/NC(=O)c1cc(-c2ccncc2)nc2ccccc12`, 2.38 µM. The result for `Cc1ccc(C(=O)c2cc([N+](=O)[O-])ccc2N2CCCCC2)c(C)c1` reads > 80 µM (inactive); that for `COc1ccccc1-c1nnc2sc(-c3ccc(N(C)C)cc3)nn12`, > 80 µM (inactive); that for `CCCOCCOC(=O)c1[nH]c2c(c1C)C(=O)CC(c1cc(OC)ccc1OC)C2` (stereo not drawn), > 80 µM (inactive). For `COc1ccc(S(=O)(=O)/N=C2\C=C(Nc3ccc(O)cc3)C(=O)c3ccccc32)cc1`, the IC50 is 2.18 µM. The same measure for `COc1ccc(Nc2nc(-c3sc(C)nc3C)cs2)cc1`: > 80 µM (inactive); for `Cn1cc(C(=O)N/N=C/c2c(O)ccc3ccccc23)ccc1=O`: > 80 µM (inactive).

With `CS(=O)(=O)c1ccc(Sc2nc3ccccc3s2)c([N+](=O)[O-])c1`, the IC50 is 1.11 µM. The same measure for `COc1ccccc1N1CCN(C(=O)C2c3ccccc3Oc3ccccc32)CC1`: > 80 µM (inactive); for `CC1=C([N+](=O)[O-])C(c2ccccc2)C2=C(N1)c1ccccc1C2=O` (stereo not drawn): > 80 µM (inactive). The result for `O=C(Nc1ccc(S(=O)(=O)Nc2ccccc2)cc1)c1ccc(CN2CCOCC2)cc1` reads 46.1 µM (inactive); that for `O=C1C=CCC(/C=C/c2ccccc2)O1` (stereo not drawn), 2.18 µM; that for `Cc1cc2c(cc1C)C(c1ccccc1OC(C)C)CC(=O)N2` (stereo not drawn), > 80 µM (inactive).

As to `CC(=O)O[C@@]12CO[C@@H]1C[C@H](O)[C@@]1(C)C(=O)[C@H](O)C3=C(C)[C@@H](OC(=O)[C@H](O)[C@@H](NC(=O)c4ccccc4)c4ccccc4)C[C@@](O)([C@@H](OC(=O)c4ccccc4)C12)C3(C)C` (stereo partly drawn), the IC50 is > 80 µM (inactive). The same measure for `Nc1nc(Cl)cc(N2CCC(c3cc(-c4ccc(Cl)cc4)n[nH]3)CC2)n1`: 5.28 µM; for `CCOc1ccc(NC(=O)c2cc3c(C)nc4ccccc4c3o2)cc1`: > 80 µM (inactive); for `COc1ccc(C(=O)/C(C#N)=N/Nc2ccc([N+](=O)[O-])cc2)cc1`: 18.6 µM. The same measure for `CCN1/C(=C/C(C)=C/c2sc3ccccc3[n+]2CC)Sc2ccccc21`: 2.42 µM. As to `Cn1cc(/C=N/n2cnc3scc(-c4ccc(Cl)cc4)c3c2=O)c2ccccc21`, the IC50 is > 80 µM (inactive). As to `CCOC(=O)CC1CCCCN1C(=O)c1cc(COc2cccc3cnccc23)on1` (stereo not drawn), the IC50 was > 80 µM (inactive).

As for `Cc1csc2ncnc(NC3CCN(Cc4ccccc4)CC3)c12`, the IC50 is 8.31 µM.

Turning to `CCOc1ccccc1NC(=O)CN(c1ccc(OC)cc1)S(=O)(=O)c1c(C)noc1C`, the IC50 is > 80 µM (inactive).

`COc1cc(-c2noc(C)c2/C=C/c2ccc(OC(C)=O)cc2)cc(OC)c1OC`: the IC50 is > 80 µM (inactive).
